Data as given in patent US20200085864A1, “Stannous Fluoride Sugar Alcohol Solid Solutions” (WhiteHill Life Sciences, LLC, priority 2018, published 2020).

Conditions: aqueous SnF2

Compound: [F][Sn][F] [Stannous fluoride]
- Natural pH of stannous fluoride: about 3.2
